# From patent publication US12419848B2, “Treatment of hyperinflammatory syndrome” (priority 2020, dated 2025)
# Where a name gives a salt, the structure may show the parent alone.
# Assays:
# [1] = molecular target: T1, P2X7R (Homo sapiens, UniProt Q99572); set-up: endogenous in cells; host or cells: human subjects (clinical trials reported elsewhere); details: administered orally; cited from earlier work
# T1 sequence (Q99572 1-595): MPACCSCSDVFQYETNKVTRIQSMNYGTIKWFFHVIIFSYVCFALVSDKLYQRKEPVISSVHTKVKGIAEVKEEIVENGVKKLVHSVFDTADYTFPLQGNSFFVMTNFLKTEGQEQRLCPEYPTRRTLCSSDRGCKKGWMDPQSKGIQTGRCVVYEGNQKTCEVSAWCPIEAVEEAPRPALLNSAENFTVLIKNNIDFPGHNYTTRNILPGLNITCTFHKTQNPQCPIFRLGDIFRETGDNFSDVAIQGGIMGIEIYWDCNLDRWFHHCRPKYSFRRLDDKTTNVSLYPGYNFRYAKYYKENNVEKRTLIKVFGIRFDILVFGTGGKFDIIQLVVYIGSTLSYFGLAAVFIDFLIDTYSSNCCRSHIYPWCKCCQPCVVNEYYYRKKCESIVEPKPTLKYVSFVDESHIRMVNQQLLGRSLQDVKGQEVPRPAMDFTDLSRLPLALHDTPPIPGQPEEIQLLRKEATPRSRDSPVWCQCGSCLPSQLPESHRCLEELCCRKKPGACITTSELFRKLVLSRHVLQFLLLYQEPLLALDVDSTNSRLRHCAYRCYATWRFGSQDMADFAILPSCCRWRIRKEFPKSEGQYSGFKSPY
# [2] = tested on: posttraumatic epileptic seizures; test: Example 21: posttraumatic epileptic seizures; type: in vivo, human
# [3] = tested on: psoriatic arthritis, herpes zoster infection; test: Example 11: psoriatic arthritis with herpes zoster
# [4] = tested on: chronic interstitial cystitis; test: Example 13: chronic interstitial cystitis; type: in vivo, human; details: for effect on symptoms (prior treatment): in vivo
# [5] = tested on: idiopathic Parkinson's disease
# [6] = tested on: diabetic polyneuropathy; test: Example 23: diabetic polyneuropathy; type: in vivo, human
# [7] = tested on: inflammatory bowel disease with perianal fistulae; test: Example 28: inflammatory bowel disease with perianal fistulae; type: in vivo; details: dog, 4×100 mg/d applied into the largest fistula, after 1 week
# [8] = tested on: SLE peritonitis; test: Example 33: systemic lupus erythematosus; type: in vivo, human
# [9] = tested on: ulcerative colitis; test: Example 27: ulcerative colitis; type: in vivo, human
# [10] = tested on: ischaemic cardiomyopathy; test: Example 31: ischaemic cardiomyopathy; type: in vivo, human
# [11] = tested on: Alzheimer's disease; test: Example 19: Alzheimer's dementia; type: in vivo, human; details: sublingual 4×100 mg/d, after 3 months; before 15
# [12] = tested on: acute lumbago; test: Example 32: acute lumbago; type: in vivo, human; details: sublingual 4×100 mg/d, after 30 minutes
# [13] = tested on: myasthenia gravis; test: Example 24: myasthenia gravis; type: in vivo, human
# Method: A person was diagnosed having myasthenia gravis. They suffered from muscle weakness of the arms and hand after physical activity. The diagnosis was confirmed with EMG and positive test for antibodies against acetylcholine receptor (AChR). They were treated with oral anticholinesterase drug (mestinon) 4×60 mg/d. […] The treatment was continued for 2 weeks.
# [14] = tested on: COPD; test: Example 25: COPD; type: in vivo, human; details: sublingual 4×100 mg/d, after 3 months; before 60%
# [15] = tested on: ALS; test: Example 18: amyotrophic lateral sclerosis; type: in vivo, human
# [16] = tested on: terminal cancer patients; test: Example 17: diverse cancer, palliative; type: in vivo, human; details: for time to relief of pain, nausea and/or extreme fatigue: continuous subcutaneous 1 mg/kg/hr; for SIP68: 10 patients, before treatment 48 (range 18-68)
# [17] = tested on: COVID-19; test: Example 7: COVID-19 case; type: in vivo, human
# Excerpt: On Mar. 24, 2020, a person developed cough, dyspnoea, myalgia, pain in hip and groin, shivers but no fever. A COVID-19 test was not performed. This occurred one week after closely working together with a colleague who developed proven severe COVID-19 requiring hospital admission.
# On Jul. 12, 2020, (day 1) the patient developed new symptoms comprising shivers, joint pain (knees, hips, shoulders) and conjunctivitis of the left eye. They reported sick at work. The infection probably occurred on Jul. 1, 2020. On that day they met many people during their work at the office and in the evening they went for a drink in a bar with a few colleagues. The infection occurred despite social distancing and hand sanitising. At that time no one wore a face mask. […] On July 21 (day 10), 2020, the IgA antibody test for COVID-19 result was positive.
# A few hours later a clinical deterioration occurred with extreme fatigue, chest pain and pain in the right upper arm. The treatment was converted to transdermal lidocaine cream. […] As much as 400 mg cream is applied over the skin and covered by Tegaderm transparent wound dressing. […] But after 6 hours the infusion rate was increased to 63 mg/hour (1 mg/kg/hr) due to persistent symptoms.
# Day 85, after almost 3 weeks with no symptoms other than a fluctuating pain in the upper arm, the prickling sensations of the lung returned. SpO2 96%, HR 90/min, BP 95/68 mm Hg, temperature […]. […] Inhalation of the lidocaine solution was avoided.
# [18] = Examples 1-6: safety (ECG, metHb, confusion); details: for Blood metHb: within the normal range
# [19] = tested on: polymyalgia rheumatica
# [20] = tested on: COVID-19; type: in vivo
# [21] = tested on: renal function impairment; test: Example 16: advanced cervix carcinoma and renal dysfunction; type: in vivo, human; details: continuous subdermal 1 mg/kg/hr
# [22] = tested on: rheumatoid arthritis; test: Example 30: rheumatoid arthritis; set-up: species or system human; details: in vivo
# [23] = sublingual 4×100 mg/d, after 1 month
compound,measurement,setting,value
O=C(NCC12CC3CC(CC(C3)C1)C2)c1cc(CCCNCCCO)ccc1Cl [AZD9056],outcome of oral administration,[1],without great success
"COC[C@H](O)Cn1c(=O)cnn(-c2ccc(Cl)c(C(=O)NCC3(O)CCCCCC3)c2)c1=O [CE-224,535 500]",outcome of oral administration,[1],without great success
CCN(CC)CC(=O)Nc1c(C)cccc1C [Lidocaine hydrochloride],EEG epileptic activity of the brain,[2]; subdermal 1 mg/kg/hour,had disappeared
same,time to disappearance of seizures,"[2]; subdermal 1 mg/kg/hour, 20 mg/ml solution",≤ 30 min
CN1CC[C@]23c4c5ccc(O)c4O[C@H]2[C@@H](O)C=C[C@H]3[C@H]1C5 [Morphine],effect on herpes zoster pain,[3]; before lidocaine treatment,did not subside the pain
same,side effect,[3]; in vivo,developed obstipation
COc1ccc2c3c1O[C@H]1C(=O)CC[C@@]4(O)[C@@H](C2)N(C)CC[C@]314 [Oxycodone],effect on symptoms (prior treatment),[4],had no effect on their symptoms
CN1C(=O)CN=C(c2ccccc2)c2cc(Cl)ccc21 [diazepam],effect on generalised epileptic seizures,[2]; repeated 10 mg intravenous,had no effect
N[C@@H](Cc1ccc(O)c(O)c1)C(=O)O [levodopa],side effect after increasing dosage,[5]; in vivo,levodopa-induced chorea
same,symptoms (prior treatment),"[5]; initially, symptoms returned after 6 years",the symptoms improved clearly
"CCN(CC)CC(=O)Nc1c(C)cccc1C [lidocaine base, lidocaine]",muscle strength of hands,[6]; after 3 months,improved significantly
same,tingling feelings in hands and feet,"[6]; sublingual 4×100 mg/d, after a few days",disappeared completely
same,oozing opaque fluid secretion and bad odour,[7],had disappeared
same,abdominal distension,[8]; after 2 weeks,disappeared completely
same,clinical symptoms,[8]; sublingual 4×100 mg/d,disappeared in the course of 6 days
same,symptoms,"[9]; sublingual 4×100 mg/d, after 3 days",completely disappeared
same,tendency to fall,[5]; [23],gradually improved
same,tremor,[5]; [23],almost disappeared
same,chest pain episodes,[10]; after 3 weeks,significantly diminished
same,cardiac ejection fraction (transthoracic echocardiographic),"[10]; sublingual 4×100 mg/d, after 3 months, before 31%",42%
same,MMSE Test total score,[11],23
same,symptoms disappeared,[12],95%
same,influenza A viral infection symptoms,[13]; sublingual 4×100 mg/d,disappeared almost completely
same,time to significant improvement of muscle weakness of arms and hand,[13]; sublingual 4×100 mg/d,≤ 4 h
same,FEV1,[14],84%
CCN(CC)CC(=O)Nc1c(C)cccc1C [lidocaine],MRC muscle strength: Upper arm abduction left,"[15]; six months, sublingual 4×100 mg/d, before 4",5
same,MRC muscle strength: Foot extension left,"[15]; six months, before 1",2
same,MRC muscle strength: Foot extension right,"[15]; six months, before 1",2
same,MRC muscle strength: Foot flexion left,"[15]; six months, before 2",3
same,MRC muscle strength: Foot flexion right,"[15]; six months, before 2",3
same,MRC muscle strength: Elbow flexion left,"[15]; six months, before 4",4
same,MRC muscle strength: Elbow flexion right,"[15]; six months, before 4",4
same,MRC muscle strength: Knee flexion left,"[15]; six months, before 4",5
same,MRC muscle strength: Knee flexion right,"[15]; six months, before 4",5
same,MRC muscle strength: Upper arm abduction right,"[15]; six months, before 4",5
same,muscle cramping,"[15]; sublingual 4×100 mg/d, after one week",gradually disappeared
same,symptoms,"[4]; continuous subcutaneous 1 mg/kg/hr, after 2 days",practically free of symptoms
same,"time to relief of pain, nausea and/or extreme fatigue",[16]; 7 of 10 patients,≤ 2 h
same,SIP68,[16]; after 3 days,33 (range 12-58)
same,SIP68,[16]; after 7 days,28 (range 12-56)
same,"time to relief of pain, nausea and/or extreme fatigue",[16]; remaining patients,≤ 48 h
same,symptoms,"[17]; continuous subdermal 0.5 mg/kg/hr, after a few hours (March 2020)",practically free of symptoms
same,symptoms,"[17]; day 11, infusion 24 hours per day",improved gradually
same,symptoms,"[17]; day 12-13, subdermal 0.63 mg/kg/hr plus amoxicilline",improved significantly
same,clinical improvement,"[17]; day 18, subdermal 40 mg/hour, after 1 hour",clinical improvement was noticeable
same,symptoms,"[17]; day 18, subdermal 63 mg/hour (1 mg/kg/hr)",the symptoms disappeared with the exception of the pain in the upper arm
same,symptoms,"[17]; day 23, lidocaine infusion",reduced the symptoms to tolerable levels
same,time to improvement of symptoms,"[17]; day 46, continuous subdermal 0.63 mg/kg/hr",≤ 30 min
same,symptoms,"[17]; day 61, continuous subdermal 0.63 mg/kg/hr",the symptoms subsided
same,time to disappearance of prickling sensations and oppressive feeling on chest,"[17]; from day 85, sublingual 3×100 mg/d",20 min
same,symptoms after relapse,[17]; reinitiated continuous subcutaneous infusion,subsided again
same,symptoms,"[17]; subdermal 0.63 mg/kg/hr, day 1 (Jul. 12, 2020)",improved within a few hours
same,clinical condition,"[17]; subdermal infusion reinitiated Apr. 1, 2020, after a few days",the clinical condition improved
same,new ECG changes during treatment with lidocaine,[18]; Patient 1,No new ECG changes
same,Blood metHb,[18]; Patient 1,0.3-0.8%
same,new ECG changes during treatment with lidocaine,[18]; Patient 2,No new ECG changes
same,signs of confusion after extubation,"[18]; Patient 2, day 22, on lidocaine",no signs of confusion
same,Blood metHb,[18]; Patient 2,0.1-0.6%
same,new ECG changes during treatment with lidocaine,[18]; Patient 3,No new ECG changes
same,signs of confusion after extubation,"[18]; Patient 3, day 5",no signs of confusion
same,Blood metHb,[18]; Patient 3,0.1-0.4%
same,new ECG changes during treatment with lidocaine,[18]; Patient 4,No new ECG changes
same,signs of confusion after extubation,[18]; Patient 4,no signs of confusion
same,Blood metHb,[18]; Patient 4,0.1-0.3%
same,new ECG changes during treatment with lidocaine,[18]; Patient 5,No new ECG changes
same,signs of confusion after extubation,"[18]; Patient 5, day 10",no signs of confusion
same,Blood metHb,[18]; Patient 5,0.1-0.3%
same,new ECG changes during treatment with lidocaine,[18]; Patient 6,No new ECG changes
same,signs of confusion after extubation,"[18]; Patient 6, day 10",no signs of confusion
same,Blood metHb,[18]; Patient 6,0.1-0.3%
same,symptoms,"[19]; nocturnal continuous subdermal 0.5 mg/kg/hr, 8 hours, 2 x/week",disappeared after the first treatment
same,time to disappearance of symptoms,[19]; sublingual 2×60 mg/d,≤ 1 h
same,all symptoms except dry mouth feelings and mild fatigue,"[20]; day 8, sublingual 3×60 mg/d",disappeared completely
same,"runny nose, headache, neck pain and neck stiffness","[20]; sublingual 5×60 mg, 24 hours after initiation",disappeared
same,renal function,[21],improved
Nc1ccc(O)c(C(=O)O)c1 [mesalamine],response of symptoms in this exacerbation,[9]; oral CR 3×400 mg/d,did not respond
CN(C)C(=O)Oc1ccc[n+](C)c1 [mestinon],efficacy during influenza A infection,[13]; oral 4×60 mg/d,no longer effective
CN(Cc1cnc2nc(N)nc(N)c2n1)c1ccc(C(=O)N[C@@H](CCC(=O)O)C(=O)O)cc1 [methotrexate],effect on symptoms (prior treatment),[22],did not improve the symptoms
CC(=O)Nc1ccc(O)cc1 [paracetamol],effect on symptoms (prior treatment),[4],had no effect on their symptoms
tocilizumab: disease-modifying antirheumatic drug,effect on symptoms (prior treatment),[22],did not improve the symptoms
